Experimental data reported in US11091478B2 (Fochon Pharmaceuticals, Ltd., priority 2017, dated 2021).
Where two headings read alike, the source gives them in different places.

Experiments:
RS4;11 cells = experiment: Cell proliferation assay (MTS), RS4;11 cells, 72 h; format: cell-based
In short: (§1)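 Cells in RPMI-1640 with 10% FBS were seeded at 5000/well, left overnight at 37° C., 5% CO2, then exposed to compound at 10000 down to 1.5 nM (nine concentrations) for 72 h (RS4;11) or 120 h (DOHH2). Viability was read by MTS, 2 h, absorbance at 490/650 nm; IC50 calculated.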

DOHH2 cells = experiment: Cell proliferation assay (MTS), DOHH2 cells, 120 h; format: cell-based
In short: as §1

IC50 (RS4;11 cells; Homo sapiens, RS4-11, 72 h) [nM] | Structure (SMILES) | IC50 (DOHH2 cells; Homo sapiens, DOHH-2, 120 h) [nM] | IC50 (RS4;11 cells) [nM] | IC50 (DOHH2 cells) [nM]
1 | C[C@H]1CN(CC[C@@H]2COc3cc(S(=O)(=O)NC(=O)c4ccc(N5CCN(CC6=C(c7ccc(Cl)cc7)CC(C)(C)CC6)CC5)cc4Oc4cnc5[nH]ccc5c4)cc([N+](=O)[O-])c3N2)CCN1C [Example 2-37, 2-((1H-pyrrolo[2,3-b]pyridin-5-yl)oxy)-4-(4-((4′-chloro-5,5-dimethyl-3,4,5,6-tetrahydro-[1,1′-biphenyl]-2-yl)methyl)piperazin-1-yl)-N-(((R)-3-(2-((S)-3,4-dimethylpiperazin-1-yl)ethyl)-5-nitro-3,4-dihydro-2H-benzo [b][1,4]oxazin-7-yl)sulfonyl)benzamide] | 25 | – | –
1 | CC1(C)CCC(CN2CCN(c3ccc(C(=O)NS(=O)(=O)c4cc5c(c([N+](=O)[O-])c4)N[C@H](CCN4CCN(C6COC6)CC4)CO5)c(Oc4cnc5[nH]ccc5c4)c3)CC2)=C(c2ccc(Cl)cc2)C1 [Example 2-38, (R)-2-((1H-pyrrolo[2,3-b]pyridin-5-yl)oxy)-4-(4-((4′-chloro-5,5-dimethyl-3,4,5,6-tetra-hydro-[1,1′-biphenyl]-2-yl)methyl)piperazin-1-yl)-N-((5-nitro-3-(2-(4-(oxetan-3-yl)piperazin-1-yl)ethyl)-3,4-dihydro-2H-benzo [b][1,4]oxazin-7-yl)sulfonyl)benzamide] | 27 | – | –
9 | C[C@@H]1CN(CC[C@@H]2COc3cc(S(=O)(=O)NC(=O)c4ccc(N5CCN(CC6=C(c7ccc(Cl)cc7)CC(C)(C)CC6)CC5)cc4Oc4cnc5[nH]ccc5c4)cc([N+](=O)[O-])c3N2)CCN1C1COC1 [Example 2-39, 2-((1H-pyrrolo[2,3-b]pyridin-5-yl)oxy)-4-(4-((4′-chloro-5,5-dimethyl-3,4,5,6-tetrahydro-[1,1′-biphenyl]-2-yl)methyl)piperazin-1-yl)-N-(((R)-3-(2-((R)-3-methyl-4-(oxetan-3-yl)piperazin-1-yl)ethyl)-5-nitro-3,4-dihydro-2H-benzo[b][1,4]oxazin-7-yl)sulfonyl) benzamide] | 33 | – | –
22 | C[C@H]1CN(CC[C@@H]2COc3cc(S(=O)(=O)NC(=O)c4ccc(N5CCN(CC6=C(c7ccc(Cl)cc7)CC(C)(C)CC6)CC5)cc4Oc4cnc5[nH]ccc5c4)cc([N+](=O)[O-])c3N2)CCN1C1COC1 [Example 2-40] | 36 | – | –
2 | C[C@H]1CN(CC[C@@H]2COc3cc(S(=O)(=O)NC(=O)c4ccc(N5CCN(CC6=C(c7ccc(Cl)cc7)CC(C)(C)CC6)CC5)cc4Oc4cnc5[nH]ccc5c4)cc([N+](=O)[O-])c3N2)CCO1 [Example 2-41, 2-((1H-pyrrolo[2,3-b]pyridin-5-yl)oxy)-4-(4-((4′-chloro-5,5-dimethyl-3,4,5,6-tetrahydro-[1,1′-biphenyl]-2-yl)methyl)piperazin-1-yl)-N-(((R)-3-(2-((S)-2-methylmorpholino)ethyl)-5-nitro-3,4-dihydro-2H-benzo[b][1,4]oxazin-7-yl)sulfonyl)benzamide] | 23 | – | –
6 | C[C@@H]1CN(CC[C@@H]2COc3cc(S(=O)(=O)NC(=O)c4ccc(N5CCN(CC6=C(c7ccc(Cl)cc7)CC(C)(C)CC6)CC5)cc4Oc4cnc5[nH]ccc5c4)cc([N+](=O)[O-])c3N2)CCO1 [Example 2-42, 2-((1H-pyrrolo[2,3-b]pyridin-5-yl)oxy)-4-(4-((4′-chloro-5,5-dimethyl-3,4,5,6-tetrahydro-[1,1′-biphenyl]-2-yl)methyl)piperazin-1-yl)-N-(((R)-3-(2-((R)-2-methylmorpholino)ethyl)-5-nitro-3,4-dihydro-2H-benzo[b][1,4]oxa-zin-7-yl)sulfonyl)benzamide] | 38 | – | –
– | CC1(C)CCC(CN2CCN(c3ccc(C(=O)NS(=O)(=O)c4cc5c(c([N+](=O)[O-])c4)N[C@@H](CCN=S(C)(C)=O)CO5)c(Oc4cnc5[nH]ccc5c4)c3)CC2)=C(c2ccc(Cl)cc2)C1 [Example 2-43, (S)-2-((1H-pyrrolo[2,3-b]pyridin-5-yl)oxy)-4-(4-((4′-chloro-5,5-dimethyl-3,4,5,6-tetra-hydro-[1,1′-biphenyl]-2-yl)methyl)piperazin-1-yl)-N-((3-(2-((dimethyl(oxo)-l6-sulfanyl-idene)amino)ethyl)-5-nitro-3,4-dihydro-2H-benzo[b][1,4]oxazin-7-yl)sulfonyl)benza-mide] | – | 1 | 10
46 | CC1(C)CCC(CN2CCN(c3ccc(C(=O)NS(=O)(=O)c4cc5c(c([N+](=O)[O-])c4)N[C@@H](CCN4CC(O)C4)CO5)c(Oc4cnc5[nH]ccc5c4)c3)CC2)=C(c2ccc(Cl)cc2)C1 [Example 2-44, (S)-2-((1H-pyrrolo[2,3-b]pyridin-5-yl)oxy)-4-(4-((4′-chloro-5,5-dimethyl-3,4,5,6-tetra-hydro-[1,1′-biphenyl]-2-yl)methyl)piperazin-1-yl)-N-((3-(2-(3-hydroxyazetidin-1-yl)eth-yl)-5-nitro-3,4-dihydro-2H-benzo[b][1,4]oxazin-7-yl)sulfonyl)benzamide] | 51 | – | –
12 | CC1(C)CCC(CN2CCN(c3ccc(C(=O)NS(=O)(=O)c4cc5c(c([N+](=O)[O-])c4)N[C@@H](CCN4CC(C)(O)C4)CO5)c(Oc4cnc5[nH]ccc5c4)c3)CC2)=C(c2ccc(Cl)cc2)C1 [Example 2-45, (S)-2-((1H-pyrrolo[2,3-b]pyridin-5-yl)oxy)-4-(4-((4′-chloro-5,5-dimethyl-3,4,5,6-tetra-hydro-[1,1′-biphenyl]-2-yl)methyl)piperazin-1-yl)-N-((3-(2-(3-hydroxy-3-methylazeti-din-1-yl)ethyl)-5-nitro-3,4-dihydro-2H-ben-zo[b][1,4]oxazin-7-yl)sulfonyl)benzamide] | 17 | – | –
1 | C[C@@H]1CN(CC[C@H]2COc3cc(S(=O)(=O)NC(=O)c4ccc(N5CCN(CC6=C(c7ccc(Cl)cc7)CC(C)(C)CC6)CC5)cc4Oc4cnc5[nH]ccc5c4)cc([N+](=O)[O-])c3N2)CCN1C [Example 2-46, 2-((1H-pyrrolo[2,3-b]pyridin-5-yl)oxy)-4-(4-((4′-chloro-5,5-dimethyl-3,4,5,6-tetrahydro-[1,1′-biphenyl]-2-yl)methyl)piperazin-1-yl)-N-(((S)-3-(2-((R)-3,4-dimethylpiperazin-1-yl)ethyl)-5-nitro-3,4-dihydro-2H-benzo [b][1,4]oxazin-7-yl)sulfonyl)benzamide] | 7 | – | –
22 | C[C@H]1CN(CC[C@H]2COc3cc(S(=O)(=O)NC(=O)c4ccc(N5CCN(CC6=C(c7ccc(Cl)cc7)CC(C)(C)CC6)CC5)cc4Oc4cnc5[nH]ccc5c4)cc([N+](=O)[O-])c3N2)CCN1C [Example 2-47, 2-((1H-pyrrolo[2,3-b]pyridin-5-yl)oxy)-4-(4-((4′-chloro-5,5-dimethyl-3,4,5,6-tetrahydro-[1,1′-biphenyl]-2-yl)methyl)piperazin-1-yl)-N-(((S)-3-(2-((S)-3,4-dimethylpiperazin-1-yl)ethyl)-5-nitro-3,4-dihydro-2H-benzo [b][1,4]oxazin-7-yl)sulfonyl)benzamide] | 12 | – | –
